Results as given in US10640488B2, “Antibacterial compounds” (AZIENDE CHIMICHE RIUNITE ANGELINI FRANCESCO A.C.R.A.F. …, priority 2016, dated 2020).

Tests used:
S. aureus DNA gyrase = S. aureus DNA gyrase (Staphylococcus aureus, UniProt P0A0K8+P20831); type: biochemical
E. coli DNA gyrase = E. coli DNA gyrase (Escherichia coli, UniProt P0AES4+P0AES6); type: biochemical
Sequence of E. coli DNA gyrase (P0AES4 whole entry, one chain of several): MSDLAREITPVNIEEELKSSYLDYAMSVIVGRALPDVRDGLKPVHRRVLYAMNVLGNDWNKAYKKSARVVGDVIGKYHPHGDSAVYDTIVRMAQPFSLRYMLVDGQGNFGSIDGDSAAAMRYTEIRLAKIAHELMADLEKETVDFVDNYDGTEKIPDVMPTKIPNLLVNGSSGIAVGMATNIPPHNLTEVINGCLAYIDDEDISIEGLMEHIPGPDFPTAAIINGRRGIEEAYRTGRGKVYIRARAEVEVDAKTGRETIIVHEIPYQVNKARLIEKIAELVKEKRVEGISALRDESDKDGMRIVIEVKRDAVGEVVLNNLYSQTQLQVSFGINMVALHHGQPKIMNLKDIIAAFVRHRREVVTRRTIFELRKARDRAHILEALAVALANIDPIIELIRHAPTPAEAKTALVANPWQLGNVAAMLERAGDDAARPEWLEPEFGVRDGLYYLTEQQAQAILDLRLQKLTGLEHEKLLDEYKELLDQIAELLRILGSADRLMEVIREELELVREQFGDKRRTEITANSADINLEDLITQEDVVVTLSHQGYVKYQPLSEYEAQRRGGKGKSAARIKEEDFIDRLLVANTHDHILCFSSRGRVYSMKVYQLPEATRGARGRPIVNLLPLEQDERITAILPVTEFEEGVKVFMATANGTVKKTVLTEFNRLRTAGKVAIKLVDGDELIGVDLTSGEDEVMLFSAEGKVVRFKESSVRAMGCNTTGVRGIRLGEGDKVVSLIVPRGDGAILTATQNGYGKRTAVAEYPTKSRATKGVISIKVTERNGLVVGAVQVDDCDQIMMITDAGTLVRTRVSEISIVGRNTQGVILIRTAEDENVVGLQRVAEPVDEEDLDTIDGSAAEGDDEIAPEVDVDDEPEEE

Sequence of S. aureus DNA gyrase (P20831 whole entry): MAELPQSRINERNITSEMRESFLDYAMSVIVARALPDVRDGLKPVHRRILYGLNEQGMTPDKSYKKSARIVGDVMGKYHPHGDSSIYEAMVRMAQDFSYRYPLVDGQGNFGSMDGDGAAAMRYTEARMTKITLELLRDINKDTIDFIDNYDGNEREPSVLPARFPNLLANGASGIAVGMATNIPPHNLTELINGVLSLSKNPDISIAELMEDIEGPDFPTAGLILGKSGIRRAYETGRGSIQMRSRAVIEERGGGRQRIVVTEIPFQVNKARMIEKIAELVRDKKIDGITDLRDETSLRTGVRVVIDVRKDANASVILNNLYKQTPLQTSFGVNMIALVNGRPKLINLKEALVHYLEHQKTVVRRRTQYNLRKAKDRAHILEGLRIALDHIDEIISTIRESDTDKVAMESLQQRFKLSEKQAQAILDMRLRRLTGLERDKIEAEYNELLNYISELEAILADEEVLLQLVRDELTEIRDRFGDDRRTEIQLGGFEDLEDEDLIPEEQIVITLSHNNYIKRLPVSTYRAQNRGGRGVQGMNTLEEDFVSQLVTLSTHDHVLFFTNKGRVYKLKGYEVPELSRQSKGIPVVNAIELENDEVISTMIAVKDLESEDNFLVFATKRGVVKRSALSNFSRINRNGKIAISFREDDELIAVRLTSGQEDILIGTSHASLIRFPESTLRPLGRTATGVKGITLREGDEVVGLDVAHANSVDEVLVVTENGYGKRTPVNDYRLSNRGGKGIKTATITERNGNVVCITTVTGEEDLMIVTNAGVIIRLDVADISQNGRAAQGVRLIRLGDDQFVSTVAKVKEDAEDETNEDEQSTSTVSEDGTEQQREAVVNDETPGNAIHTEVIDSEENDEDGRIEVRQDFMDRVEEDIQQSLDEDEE
Sequence of S. aureus DNA gyrase (P0A0K8 whole entry): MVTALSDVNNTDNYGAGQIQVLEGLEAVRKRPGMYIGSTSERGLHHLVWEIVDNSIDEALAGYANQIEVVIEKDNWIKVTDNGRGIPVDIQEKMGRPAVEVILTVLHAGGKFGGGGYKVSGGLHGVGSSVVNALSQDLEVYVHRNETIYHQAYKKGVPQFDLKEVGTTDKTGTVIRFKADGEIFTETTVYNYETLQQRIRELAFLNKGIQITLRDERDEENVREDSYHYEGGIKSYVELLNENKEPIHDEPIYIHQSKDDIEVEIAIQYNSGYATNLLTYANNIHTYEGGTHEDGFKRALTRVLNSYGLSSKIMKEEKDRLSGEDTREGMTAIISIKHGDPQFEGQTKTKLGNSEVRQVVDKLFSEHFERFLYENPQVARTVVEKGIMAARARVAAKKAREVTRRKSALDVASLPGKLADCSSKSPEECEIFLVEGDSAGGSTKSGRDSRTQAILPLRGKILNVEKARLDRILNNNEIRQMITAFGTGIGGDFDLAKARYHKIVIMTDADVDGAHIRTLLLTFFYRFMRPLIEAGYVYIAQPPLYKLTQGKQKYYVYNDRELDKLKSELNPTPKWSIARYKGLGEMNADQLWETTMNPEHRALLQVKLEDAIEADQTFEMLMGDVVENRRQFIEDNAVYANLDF

Structure (SMILES)	S. aureus % inhibition DNA gyrase (S. aureus DNA gyrase)	E. coli % inhibition DNA gyrase (E. coli DNA gyrase)
O=c1oc2ccccc2c2[nH]c(CNCC3CCN(c4nccc5ccc(F)cc45)C3)cc12 (single isomer, unassigned) [Compound 180, 2-[({[1-(7-fluoroisoquinolin-1-yl)pyrrolidin-3-yl]methyl}amino)methyl][1]benzopyrano[4,3-b]pyrrol-4(1H)-one]	90%	58%
O=c1oc2ccccc2c2[nH]c(CNCC3CN(c4nccc5ccc(F)cc45)CCO3)cc12 (single isomer, unassigned) [Compound 182, 2-[({[4-(7-fluoroisoquinolin-1-yl)morpholin-2-yl]methyl}amino)methyl][1]benzopyrano[4,3-b]pyrrol-4(1H)-one]	92%	61%
